# Test results from patent publication US20090215171A1, “PELCAM-1-related molecules compositions kit of parts and associated methods of use” (The Johns Hopkins University, priority 2004, published 2009).
# Test system: HUVECs
# Experiment: Measurement of intracellular free [Ca2+]i in HUVEC suspension (Fura-2/AM, thrombin stimulation)
# Assay type: cell-based, human
# Conditions: rest HUVEC; 16 h treatment; Ab 0.4 and 1.6 μg/mL, peptides 15 and 30 μg/mL; thrombin 1 U/ml
# Description: HUVECs were cultured in EGM™ supplied with 10% of fetal bovine serum (FBS, dialyzed) to early confluence. HUVECs (passage number 3-4) were pre-incubated with and without TNF-α (5 ng/mL, 4 hour), next the cells were subjected to various doses of the JHS-7 Ab, accompanied by the pAb-C (c-terminal anti-PECAM-1 antibody) and a rabbit IgG (both served as controls). In addition, HUVECs were also incubated with a various doses of the JHS-7 peptide and a scrambled peptide served as its control. The treatments were carried out in EGM™ supplied with 2% of FBS for 16 hours. […] All above-mentioned peptides and antibodies were tested endotoxin free with an endotoxin detection kit (Sigma E-TOXATE®). Cell viability was determined with trypan blue exclusion assay after the incubation and no cytotoxic effect was observed under the Applicants' experimental conditions. HUVEC monolayers, following the incubation, were subjected to the following assays simultaneously: 1) monocyte TEM assay; 2) [Ca^2+]i measurement. […] Experimental results were calculated as average levels and plotted as % controls.
# [Ca^2+]i measurement was conducted as described previously with slight modification. […] Fluorescence was recorded using a spectrofluorometer (Perkin Elmer LS-50B), with excitation and emission wavelengths of 340 and 505 nm, respectively. […]
substance,measurement,value
scrambled peptide: control peptide of identical amino acid composition but different sequence TEDVLVPQNKSDNKATNNAFPNVSYVDEEDC (SEQ ID NO: 4) (Nonsense peptide with no known matches.),thrombin stimulatable [Ca2+]i,no effect
